The results in this text go back to ChEMBL document CHEMBL1132031, “4-Oxospiro[benzopyran-2,4'-piperidines] as selective alpha 1a-adrenergic receptor antagonists” (Bioorg Med Chem Lett, 1999).

Assay [1] concerns the target T1, Alpha-1A adrenergic receptor (Homo sapiens, UniProt P35348).
T1 sequence (P35348 whole entry): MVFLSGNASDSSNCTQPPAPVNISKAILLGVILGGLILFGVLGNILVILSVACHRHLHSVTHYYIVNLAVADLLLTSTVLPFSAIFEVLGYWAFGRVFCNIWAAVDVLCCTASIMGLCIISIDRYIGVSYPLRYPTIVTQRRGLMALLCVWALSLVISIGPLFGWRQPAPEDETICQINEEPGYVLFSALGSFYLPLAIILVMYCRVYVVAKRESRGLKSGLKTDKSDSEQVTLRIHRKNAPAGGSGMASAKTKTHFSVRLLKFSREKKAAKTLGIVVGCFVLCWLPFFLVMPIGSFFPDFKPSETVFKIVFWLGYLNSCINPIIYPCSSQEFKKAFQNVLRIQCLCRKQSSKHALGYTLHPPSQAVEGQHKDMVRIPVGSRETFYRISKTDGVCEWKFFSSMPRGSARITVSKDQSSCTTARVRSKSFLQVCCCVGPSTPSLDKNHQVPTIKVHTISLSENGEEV
As to the kind of experiment: Displacement of [125I]HEAT from human Alpha-1C adrenergic receptor expressed in CHO cells. Type of assay: cell-based.

A further assay is filed under the species Mustela putorius furo. The experiment in a line: In vitro concentration required to increase the effective refractory period (ERP) above baseline was evaluated using isolated ferret papillary muscle preparations. Conditions: Muscle tissue. Type of assay: functional.
Assay [2] has as its target T2, Alpha-1D adrenergic receptor (Homo sapiens, UniProt P25100).
T2 sequence (P25100 whole entry): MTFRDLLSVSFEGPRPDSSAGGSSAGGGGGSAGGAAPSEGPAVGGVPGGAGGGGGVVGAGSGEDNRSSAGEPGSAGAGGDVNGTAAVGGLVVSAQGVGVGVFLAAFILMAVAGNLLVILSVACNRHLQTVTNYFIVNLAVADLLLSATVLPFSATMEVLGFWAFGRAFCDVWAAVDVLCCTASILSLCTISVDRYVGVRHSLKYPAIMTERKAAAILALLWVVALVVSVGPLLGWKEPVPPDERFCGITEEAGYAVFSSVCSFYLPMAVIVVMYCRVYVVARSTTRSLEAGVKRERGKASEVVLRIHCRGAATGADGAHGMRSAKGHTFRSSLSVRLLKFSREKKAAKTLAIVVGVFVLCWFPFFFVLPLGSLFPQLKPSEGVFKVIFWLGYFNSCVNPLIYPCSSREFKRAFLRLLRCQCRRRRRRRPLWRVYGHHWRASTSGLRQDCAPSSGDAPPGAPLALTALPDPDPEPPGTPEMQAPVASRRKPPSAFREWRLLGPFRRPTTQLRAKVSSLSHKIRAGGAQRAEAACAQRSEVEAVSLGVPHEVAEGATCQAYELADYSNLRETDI
The experiment in a line: Displacement of [125I]HEAT from human Alpha-1D adrenergic receptor expressed in HEK cells. Type of assay: cell-based, HEK293.

Assay [3] has as its target T3, Alpha-1B adrenergic receptor (Homo sapiens, UniProt P35368).
T3 sequence (P35368 whole entry): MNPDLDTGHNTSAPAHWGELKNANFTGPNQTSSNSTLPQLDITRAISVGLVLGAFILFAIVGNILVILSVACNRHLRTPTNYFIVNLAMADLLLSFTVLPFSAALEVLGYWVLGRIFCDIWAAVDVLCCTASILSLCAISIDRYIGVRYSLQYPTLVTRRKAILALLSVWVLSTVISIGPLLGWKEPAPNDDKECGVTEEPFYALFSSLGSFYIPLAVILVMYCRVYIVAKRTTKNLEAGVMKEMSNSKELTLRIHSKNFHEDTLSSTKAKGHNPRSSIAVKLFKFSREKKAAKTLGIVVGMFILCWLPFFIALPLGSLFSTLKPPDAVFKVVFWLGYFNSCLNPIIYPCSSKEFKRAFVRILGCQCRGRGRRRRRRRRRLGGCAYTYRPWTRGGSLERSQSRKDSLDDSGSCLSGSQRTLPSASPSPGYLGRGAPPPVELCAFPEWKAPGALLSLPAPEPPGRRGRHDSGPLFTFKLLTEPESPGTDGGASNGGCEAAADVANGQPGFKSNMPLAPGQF
The experiment in a line: Displacement of [125I]HEAT from human Alpha-1B adrenergic receptor expressed in LM cells. Type of assay: cell-based.

The target of assay [4] is T1, Alpha-1A adrenergic receptor. As to the kind of experiment: Ability to displace [125I]HEAT from cloned human Alpha-1A adrenergic receptor stably expressed in CHO cells. Type of assay: cell-based.
For assay [5] the target is unchanged. As to the kind of experiment: Binding affinity against Alpha-1A adrenergic receptor in human prostatic tissue.
Assay [6] has as its target T4, Alpha-1A adrenergic receptor (Rattus norvegicus, UniProt P43140).
T4 sequence (P43140 whole entry): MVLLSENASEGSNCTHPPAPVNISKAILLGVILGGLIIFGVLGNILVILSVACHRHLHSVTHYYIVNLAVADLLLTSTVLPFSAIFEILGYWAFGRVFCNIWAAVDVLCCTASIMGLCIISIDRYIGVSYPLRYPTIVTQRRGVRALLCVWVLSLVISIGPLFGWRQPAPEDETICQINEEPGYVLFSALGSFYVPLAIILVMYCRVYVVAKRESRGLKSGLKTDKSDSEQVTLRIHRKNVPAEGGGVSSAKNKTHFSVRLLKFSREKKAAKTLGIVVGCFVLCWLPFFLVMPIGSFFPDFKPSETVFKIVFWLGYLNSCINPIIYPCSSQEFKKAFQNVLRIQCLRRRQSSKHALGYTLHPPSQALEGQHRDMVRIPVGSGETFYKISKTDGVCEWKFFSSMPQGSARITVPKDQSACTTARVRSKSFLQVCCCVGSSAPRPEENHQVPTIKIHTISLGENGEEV
As to the kind of experiment: Binding affinity against Alpha-1A adrenergic receptor in rat prostatic tissue.

Consider `CS(=O)(=O)Nc1ccc2c(c1)C(=O)CC1(CCN(CCc3ccccn3)CC1)O2`, for which the figures for the Ki in assay [1], in assay [2] and in assay [3] were greater than 2 µM, 3.84 µM and greater than 2 µM, respectively. In the assay filed under Mustela putorius furo, this molecule registered an EC25 of 0.033 µM.

For `Cc1[nH]c2ccccc2c1CCN1CCC2(CC1)CC(=O)c1ccc(NS(C)(=O)=O)cc1O2`, the Ki in assay [1] was 0.008 µM; in assay [2], 0.115 µM; in assay [3], 0.221 µM. In the assay filed under Mustela putorius furo, the EC25 is greater than 30 µM.

As for `O=C1OC2(CCN(CCc3cccc4ccccc34)CC2)Cc2ccccc21`, the inhibition constant (Ki) in assay [1] amounted to 0.045 µM; in assay [2] it was 0.06 µM; in assay [3] it was 0.137 µM.

On to `CS(=O)(=O)Nc1ccc2c(c1)OC1(CCN(CCc3ccccn3)CC1)CC2=O`, for which the Ki in assay [1] was 1.67 µM; in assay [2] it was 3.25 µM; in assay [3], greater than 2 µM. In addition, the EC25 in the assay filed under Mustela putorius furo came to 6.6 µM.

As to `O=C1CC2(CCN(CCc3ccccn3)CC2)Oc2ccccc21`, the inhibitory constant (Ki) was determined as 0.793 µM in assay [1], 1.52 µM in assay [2] and 1.29 µM in assay [3]. In the assay listed under Mustela putorius furo, this molecule registered an EC25 of 0.16 µM.

For `COc1ccccc1CCN1CCC2(CC1)CC(=O)c1ccc(NS(C)(=O)=O)cc1O2`, the Ki in assay [1] was determined as 0.0065 µM; in assay [2], 0.094 µM; in assay [3], 0.175 µM. This molecule had an EC25 in the assay filed under Mustela putorius furo of 3.8 µM.

Consider `C1=CC2(CCN(CCc3cccc4ccccc34)CC2)Oc2ccccc21`, for which the Ki in assay [1] was found to be 0.071 µM; in assay [2], 0.2 µM; in assay [3], 0.053 µM.

In the case of `O=C1CC2(CCN(CCc3cccc4ccccc34)CC2)Oc2ccc(NS(=O)(=O)Cc3ccccc3)cc21`, the inhibitory constant (Ki) in assay [1] came to 0.013 µM; in assay [2], 0.053 µM; in assay [3] it was 0.024 µM. For the same molecule, in the assay filed under Mustela putorius furo, the EC25 is greater than 30 µM.

As to `Cc1noc(C)c1S(=O)(=O)Nc1ccc2c(c1)C(=O)CC1(CCN(CCc3cccc4ccccc34)CC1)O2`, the Ki was 0.00069 µM in assay [4]; 0.018 µM in assay [2]; 0.024 µM in assay [3]; 0.01 µM in assay [5]; 0.01 µM in assay [6]. For the same molecule, the EC25 in the assay filed under Mustela putorius furo is greater than 30 µM.

In the case of `c1ccc2c(c1)CCC1(CCN(CCc3cccc4ccccc34)CC1)O2`, the Ki in assay [1] turned out to be 0.056 µM; in assay [2], 0.099 µM; in assay [3] it was 0.055 µM.

Take `Cn1cnc(S(=O)(=O)Nc2ccc3c(c2)C(=O)CC2(CCN(CCc4cccc5ccccc45)CC2)O3)c1`: the inhibitory constant (Ki) worked out at 0.008 µM in assay [1], 0.024 µM in assay [2] and 0.053 µM in assay [3]. In the assay filed under Mustela putorius furo, this molecule yielded an EC25 greater than 30 µM.

On to `CS(=O)(=O)Nc1ccc2c(c1)OC1(CCN(CCc3cccc4ccccc34)CC1)CC2=O`, for which the Ki in assay [1] is 0.02 µM; in assay [2], 0.136 µM; in assay [3], 0.149 µM. In the assay filed under Mustela putorius furo, this molecule had an EC25 of 9 µM.

For the molecule `O=C1CC2(CCN(CCc3cccc4ccccc34)CC2)Oc2ccccc21`, the Ki in assay [1] came out at 0.053 µM; in assay [2] it was 0.067 µM; in assay [3], 0.048 µM.

Consider `O=C1c2ccccc2CC12CCN(CCc1cccc3ccccc13)CC2`, for which the results for the Ki in assay [1], in assay [2] and in assay [3] were 0.031 µM, 0.149 µM and 0.049 µM, respectively.
